The text below walks through data of BindingDB's records for doi:10.7270/Q2R78CQV (Burnham Center For Chemical Genomics, 2011).

Each structure is given as a SMILES string.

The target of the assay is Hexokinase HKDC1 [W721R] (Homo sapiens, UniProt Q2TB90, W721R). Nature of the assay: HKDC1 hexokinase activators, dose response, biochemical, W721R variant (AID 504730).
Hexokinase HKDC1 [W721R], sequence (Q2TB90 whole entry W721R): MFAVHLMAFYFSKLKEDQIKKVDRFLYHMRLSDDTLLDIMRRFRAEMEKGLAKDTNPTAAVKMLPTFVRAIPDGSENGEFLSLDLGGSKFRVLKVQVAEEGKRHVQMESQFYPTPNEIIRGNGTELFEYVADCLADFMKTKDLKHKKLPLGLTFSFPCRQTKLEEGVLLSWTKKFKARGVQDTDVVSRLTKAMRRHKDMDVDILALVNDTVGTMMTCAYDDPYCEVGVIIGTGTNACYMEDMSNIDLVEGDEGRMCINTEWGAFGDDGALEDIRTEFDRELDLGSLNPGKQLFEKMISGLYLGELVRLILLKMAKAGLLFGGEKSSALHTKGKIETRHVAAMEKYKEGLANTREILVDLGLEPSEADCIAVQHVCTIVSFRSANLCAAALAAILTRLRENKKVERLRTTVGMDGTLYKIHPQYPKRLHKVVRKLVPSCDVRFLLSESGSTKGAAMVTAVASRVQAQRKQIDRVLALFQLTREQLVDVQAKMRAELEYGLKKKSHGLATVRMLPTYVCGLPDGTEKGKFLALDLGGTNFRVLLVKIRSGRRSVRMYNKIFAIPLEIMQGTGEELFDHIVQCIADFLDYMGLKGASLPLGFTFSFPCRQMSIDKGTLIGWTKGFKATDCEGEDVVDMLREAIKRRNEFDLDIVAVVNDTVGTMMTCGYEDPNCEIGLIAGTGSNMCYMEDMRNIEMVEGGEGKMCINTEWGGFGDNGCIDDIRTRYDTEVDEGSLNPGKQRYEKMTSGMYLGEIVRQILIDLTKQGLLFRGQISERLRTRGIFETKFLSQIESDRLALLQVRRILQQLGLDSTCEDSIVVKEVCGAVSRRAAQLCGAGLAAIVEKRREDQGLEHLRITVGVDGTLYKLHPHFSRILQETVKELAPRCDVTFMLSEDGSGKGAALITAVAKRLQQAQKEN
One may read the EC50 as the concentration giving half of the maximal effect. Compound `Nn1cnnc1N=NCc1cc(Br)cc(Br)c1O` yielded an EC50 above 80 µM.
For `Oc1c(Cl)c(N=Cc2cccnc2)c(O)c2ccccc12` [MLS001195521] the value was 9.25 µM.
For `CC(=O)Oc1cccc2c(O)c3c(c(O)c12)CC=CC3OC(C)=O` (centres undefined) [SMR001574207] the value was 51.6 µM; for `CCCOC1=CC(=O)C(C=NNC(=S)Nc2ccccc2[N+](=O)[O-])C=C1` (centres undefined) [1-(2-nitrophenyl)-3-[[(E)-(6-oxo-4-propoxy-1-cyclohexa-2,4-dienylidene)methyl]amino]thiourea], 26.5 µM; for `O=C1C(=C2C(=O)c3ccccc3C2=O)Nc2ccccc21` [MLS000071738], 24.7 µM.
Next, `Cc1[nH]n(-c2ccccc2)c(=O)c1CN=Nc1nncc(-c2ccccc2)n1` [(4E)-5-methyl-2-phenyl-4-[[(5-phenyl-1,2,4-triazin-3-yl)hydrazo]methylidene]-3-pyrazolone]: 6.69 µM; `COCc1cc(C2C(C(=O)c3ccco3)C(=O)C(=O)N2CCOCCO)ccc1O` (centres undefined) [3-(furan-2-carbonyl)-4-hydroxy-1-[2-(2-hydroxyethoxy)ethyl]-2-[4-hydroxy-3-(methoxymethyl)phenyl]-2H-pyrrol-5-one]: above 80 µM; `CC(N=Nc1nc2ccccc2o1)c1cc2ccccc2cn1` (centres undefined): 2.24 µM.
The compound `CC(C)(C)c1nnc(N=NCc2cc(Br)ccc2O)n(N)c1=O` [4-azanyl-3-[2-[(E)-(3-bromanyl-6-oxidanylidene-cyclohexa-2,4-dien-1-ylidene)methyl]hydrazinyl]-6-tert-butyl-1,2,4-triazin-5-one] registered an EC50 of 19.9 µM.
